How the values were obtained:
[1] = tested on: mice with pulmonary fibrosis; experiment: Weight measurement in bleomycin pulmonary fibrosis model (Experimental Example 2); assay type: in vivo, C57BL6J mice; conditions: compared with the model group; bleomycin 3 mg/kg intratracheal, treatment from week 1 for two weeks; FIG. 1
Source text: Establishment of pulmonary fibrosis model: 6-8 week old C57BL6J mice were selected and acclimatized for one week. In the model group, apremilast inhalation (Example 2) treatment group, roflumilast inhalation (Example 5) treatment group, crisaborole inhalation (Example 3) treatment group, apremilast oral administration treatment group (Comparative Example 1), and nintedanib oral administration treatment group (Comparative Example 2, nintedanib is a commonly used drug for treating IPF in the prior art), the animals were treated with bleomycin solution (3 mg/kg/50 μl) via intratracheal instillation on the first day, and in the control group, the animals were treated with an equal volume of physiological saline. Treatment started one week later and lasted for two weeks, and a total of three weeks was required. […]
(§1) Weight measurement: The weight of mice was measured and recorded at a fixed time on the morning each week, and the weight changes of mice in each group at different times were observed.
Statistical analysis: The results were statistically analyzed using Graphpad Prism 9.0 software for the experimental data of each group. […] The measurement data were expressed as mean #standard deviation (mean±SD). […]

[2] = tested on: mice with pulmonary fibrosis; experiment: MASSON staining of lungs in bleomycin pulmonary fibrosis model (Experimental Example 2); assay type: in vivo, C57BL6J mice; conditions: FIG. 2; for collagen fibers / collagen deposition (MASSON staining): compared with the model group; for pathological changes in the lungs (MASSON staining): inhalation groups compared with model group, oral groups compared with inhalation groups
Source text: (§2) Establishment of pulmonary fibrosis model: 6-8 week old C57BL6J mice were selected and acclimatized for one week. In the model group, apremilast inhalation (Example 2) treatment group, roflumilast inhalation (Example 5) treatment group, crisaborole inhalation (Example 3) treatment group, apremilast oral administration treatment group (Comparative Example 1), and nintedanib oral administration treatment group (Comparative Example 2, nintedanib is a commonly used drug for treating IPF in the prior art), the animals were treated with bleomycin solution (3 mg/kg/50 μl) via intratracheal instillation on the first day, and in the control group, the animals were treated with an equal volume of physiological saline. Treatment started one week later and lasted for two weeks, and a total of three weeks was required. The bleomycin solution was prepared by mixing bleomycin dry powder with sterile PBS to reach the required concentration (non-surgical method of intratracheal injection of bleomycin into mouse lungs: the mice were anesthetized with isoflurane and suspended on a surgical stent at a 70° angle. Bleomycin was administered via intratracheal instillation using a 200 μl pipette).
(§3) HE staining and MASSON staining: Mouse lung tissue was fixed in 4% paraformaldehyde for 24 h, rinsed with running water overnight, dehydrated with alcohol conventionally, embedded in paraffin, cut into 5 μm sections, and stained with HE and MASSON respectively. After clearing with xylene, the sections were mounted with neutral resin. The pathological changes in the lungs were observed and photographed under an optical microscope.

[3] = tested on: mice with pulmonary fibrosis; experiment: HE staining of lungs in bleomycin pulmonary fibrosis model (Experimental Example 2); assay type: in vivo, C57BL6J mice; conditions: FIG. 3; for alveolar structure (HE staining): compared with the model group
Source text: as §2, §3

[4] = tested on: mice with pulmonary fibrosis; experiment: Detection of MDA and HYP content in the lungs, bleomycin pulmonary fibrosis model (Experimental Example 2); assay type: in vivo, C57BL6J mice; conditions: compared with model group; FIG. 4
Source text: as §2
(§4) Detection of malondialdehyde (MDA) and hydroxyproline (HYP) content in the lungs: An appropriate amount of lung tissue was taken from the mice in each group, homogenized (the ground tissue was centrifuged at 3000 rpm for 10 min and the supernatant was taken for later use), and the MDA and HYP content in the lungs was detected according to the kit instructions. MDA stands for malondialdehyde, a product of lipid peroxidation that reflects oxidative damage, while HYP stands for hydroxyproline level, which reflects the level of pulmonary fibrosis.
(§5) Statistical analysis: The results were statistically analyzed using Graphpad Prism 9.0 software for the experimental data of each group. All experimental data underwent normality test. The measurement data were expressed as mean #standard deviation (mean±SD). One-way ANOVA was used to compare the means of multiple groups of samples. P<0.05 is considered statistically significant.

[5] = tested on: mice with pulmonary fibrosis; experiment: Weight measurement in bleomycin pulmonary fibrosis model (Experimental Example 4); assay type: in vivo, C57/BL6J mice; conditions: FIGS. 5 and 6
Source text: (§6) Establishment of pulmonary fibrosis model: 6-8 week old C57/BL6J mice were selected and acclimatized for one week. The mice were divided into blank control group, model group, apremilast inhalation (Example 2) treatment group, roflumilast inhalation (Example 5) treatment group, crisaborole inhalation (Example 3) treatment group, ibudilast inhalation (Example 10) treatment group, difamilast inhalation (Example 9) treatment group, ibudilast oral administration (Comparative Example 3) treatment group, difamilast oral administration (Comparative Example 4) treatment group, and nintedanib oral administration (Comparative Example 2, nintedanib is a commonly used drug for treating IPF in the prior art) treatment group, with n=8 in each group. On the first day, the mice in the model group and the treatment groups were administered bleomycin solution (3 mg/kg/50 μl) via tracheal instillation, while the control group was treated with an equal volume of physiological saline. Treatment began in each treatment group one week later and lasted for two weeks, and a total of three weeks was required. The bleomycin solution was prepared by mixing bleomycin dry powder with sterile PBS to reach the required concentration (non-surgical method of intratracheal injection of bleomycin into mouse lungs: the mice were anesthetized by inhaling isoflurane, and suspended on a surgical stent at a 70° angle, and bleomycin was administered via intratracheal instillation using a 200 μl pipette).
as §1
as §5, with “mean±standard” for “mean #standard”

[6] = tested on: mice with pulmonary fibrosis; experiment: MASSON staining of lungs in bleomycin pulmonary fibrosis model (Experimental Example 4); assay type: in vivo, C57/BL6J mice; conditions: FIG. 7; for collagen fibers / collagen deposition (MASSON staining): compared with the model group; for lung damage / pathological changes (MASSON staining): inhalation groups compared with model group, oral groups compared with inhalation groups
Source text: as §6
as §3, with “as usual,” for “conventionally,”, “paraffin, then serially” for “paraffin,”, “sections (5 μm),” for “5 μm sections,”, “sections” for “pathological changes in the lungs”

[7] = tested on: mice with pulmonary fibrosis; experiment: HE staining of lungs in bleomycin pulmonary fibrosis model (Experimental Example 4); assay type: in vivo, C57/BL6J mice; conditions: FIG. 8; for alveolar structure (HE staining): compared with the model group
Source text: as §6
as §3, with “as usual,” for “conventionally,”, “paraffin, then serially” for “paraffin,”, “sections (5 μm),” for “5 μm sections,”, “sections” for “pathological changes in the lungs”

[8] = tested on: mice with pulmonary fibrosis; experiment: Detection of MDA and HYP content in the lungs, bleomycin pulmonary fibrosis model (Experimental Example 4); assay type: in vivo, C57/BL6J mice; conditions: compared with model group; FIG. 9
Source text: as §6
as §4, with “instructions (MDA” for “instructions. MDA”, “damage;” for “damage, while”, “(hydroxyproline) level” for “stands for hydroxyproline level, which”, “degree” for “level”, “fibrotic deposition in the lungs).” for “pulmonary fibrosis.”
as §5, with “mean±standard” for “mean #standard”

[9] = 14th day compared to the 7th day after model establishment

| Structure (SMILES) | weight recovery [1] | collagen fibers / collagen deposition (MASSON staining) [2] | pathological changes in the lungs (MASSON staining) [2] | inflammatory cell infiltration (HE staining) [3] | alveolar structure (HE staining) [3] | HYP content in the lungs (collagen deposition) [4] | MDA content in the lungs (oxidative stress level) [4] | weight recovery [5, 9] | weight recovery ([5]; compared with the model group) | collagen fibers / collagen deposition (MASSON staining) [6] | lung damage / pathological changes (MASSON staining) [6] | inflammatory cell infiltration (HE staining) [7] | alveolar structure (HE staining) [7] | HYP content in the lungs (collagen deposition) [8] | MDA content in the lungs (oxidative stress level) [8] |
| --- | --- | --- | --- | --- | --- | --- | --- | --- | --- | --- | --- | --- | --- | --- | --- |
| CCOc1cc([C@@H](CS(C)(=O)=O)N2C(=O)c3cccc(NC(C)=O)c3C2=O)ccc1OC [Comparative Example 1, apremilast] | significant weight recovery | reduced collagen deposition | slightly thickened alveolar interstitium and a few visible collagen fibers | a few inflammatory cell infiltrations | improved alveolar structure | slight tendency to alleviate MDA and HYP in the lungs, but the results were not statistically significant | slight tendency to alleviate MDA and HYP in the lungs, but the results were not statistically significant | significant weight recovery | significant weight recovery | reduced collagen deposition | slightly thickened alveolar interstitium and a few visible collagen fibers | a few inflammatory cell infiltrations | improved the alveolar structure | slight downward trend, but this did not have statistical significance | slight downward trend, but this did not have statistical significance |
| COC(=O)c1ccc2c(c1)NC(=O)/C2=C(\Nc1ccc(N(C)C(=O)CN2CCN(C)CC2)cc1)c1ccccc1 [Comparative Example 2, nintedanib] | no significant difference in weight recovery | reduced collagen deposition | slightly thickened alveolar interstitium and a few visible collagen fibers | a few inflammatory cell infiltrations | improved alveolar structure | slight tendency to alleviate MDA and HYP in the lungs, but the results were not statistically significant | slight tendency to alleviate MDA and HYP in the lungs, but the results were not statistically significant | did not show significant body recovery | no significant difference in weight recovery | reduced collagen deposition | slightly thickened alveolar interstitium and a few visible collagen fibers | a few inflammatory cell infiltrations | improved the alveolar structure | slight downward trend, but this did not have statistical significance | slight downward trend, but this did not have statistical significance |
| CCOc1ccccc1C(=O)NCc1coc(-c2ccc(OC(F)F)c(OC(C)C)c2)n1 [Comparative Example 4, difamilast] | – | – | – | – | – | – | – | significant weight recovery | significant weight recovery | reduced collagen deposition | slightly thickened alveolar interstitium and a few visible collagen fibers | a few inflammatory cell infiltrations | improved the alveolar structure | slight downward trend, but this did not have statistical significance | slight downward trend, but this did not have statistical significance |

— patent US20260083702A1, “INHALATION FORMULATION FOR TREATING IPF DISEASE AND PREPARATION METHOD THEREFOR” (SUZHOU INHAL PHARMA CO., LTD., priority 2023, published 2026)
